# Experimental data published in patent US6774144B1, “Methods and formulations for the treatment of infectious bursal disease in avian subjects” (The University of North Carolina at Chapel Hill, priority 1999, dated 2004).
# Columns and labels:
# APHIS strain IBDV = test: Leghorn drug study (Example 13); assay type: in vivo, Leghorns; conditions: for protection against IBDV (rank order): 100 EID APHIS IBDV, one mL of 4 mg/ml orally at challenge, 24 and 48 hours PI, necropsy three days post-challenge
# Description: The procedure according to Example 12 was carried out with the following modifications: the drugs SW066, DB197, DB528, DB203 and DAP092 were tested in three week old Leghorns for protection against 100 EID of APHIS strain IBDV. The drugs were suspended in histidine-saline and used at a concentration of 4 mg/ml. One mL of drug was administered orally on the day of challenge (30 minutes prior to challenge), 24 hours PI and 48 hours PI. Birds were euthanised by CO2 inhalation and necropsied at three days post-challenge. Each drug and placebo cohort consisted of eight leghorns. Birds were weighed and sorted on the day of challenge to co-mingle birds of different weights and monitor drug dose per body weight. Birds were raised in isolation units. Each unit held 12 birds, two birds for each of the six cohorts (i.e., placebo, SW066, DB197, DB528, DB203 and DAP092). In addition, 12 uninfected birds were housed in a separate isolation unit.
# The viral load of the bursa was determined by antigen capture ELISA, as described in Example 2, while absolute lymphocyte cell counts were determined by hemocytometer.
# APHIS isolate of IBDV = test: In vivo drug treatment of IBDV-challenged SPF leghorn chickens (Example 10); conditions: for appearance of bursas upon necropsy: 20 mg/kg nares/cloaca; for appearance of bursas upon necropsy / Lymphocyte Population Per Gram of Bursal tissue, Percentage Uninfected Control: three days; for Lymphocyte Population Per Gram of Bursal tissue, Percentage Uninfected Control: 100 EID APHIS IBDV at three weeks of age, 20 mg/kg, half in the nares, half in the cloaca; for lymphocyte populations: three days after infection
# Description: SPF leghorn chickens were challenged at three weeks of age with an 100 EID APHIS isolate of IBDV. Approximately 12 birds were contained in an isolator unit with four units being employed. In each isolator unit, two birds received either drug or a placebo. One unit contained uninfected controls. The birds are treated with the drugs SW066, DAP092, DB453, DB197, and DB203 for three days. Half of the drug dosage was administered in the nares, while the second half was administered in the cloaca, at a dosage of 20 mg/kg. At necropsy, the birds were weighed, their bursa removed, weighed, and ground with a tissue homogenizer. The ground bursa material was evaluated for lymphocyte counts and viral load.
# APHIS IBDV strain [1] = test: Evaluation of drug effect to prevent or inhibit IBD, SW066 intravenous and prodrug oral (Example 12); assay type: in vivo, chicks
# Description: The procedure according to Example 11 was carried out, with a variation in which chicks were placed in six groups of ten birds each, as follows: (1) no virus control (oral placebo), (2) no virus control (SW066 intravenous), (3) no virus control (prodrug of SW066 oral), (4) APHIS IBDV strain 130 EID (oral placebo), (5) APHIS IBDV strain 130 EID (SW066 intravenous), and (6) APHIS IBDV strain 130 EID (prodrug of SW066 oral). The birds were challenged at three weeks of age with 100 μl of APHIS strain divided between the eye and nares. Drug was administered intravenously or orally. The prodrug version of SW066 was used via the oral route to enhance absorption. Daily drug treatment began the same day and thirty minutes prior to challenge. After seven days, survivors were sacrificed and necropsied.
# IBDV [2] = test: Virucidal effect: viability of virions produced in the presence of drug, second set of CEF cultures; assay type: cell-based, infectious bursal disease virus
# Description: IBDV-infected cells were treated with varying concentrations (0.01 μM, 0.1 μM, 1 μM, 10 μM and 100 μM) of SW066 for 24 hours. After 24 hours, SW066 was washed away from the cell. After 72 hours of total incubation time (i.e., after the life cycle of IBDV is predicted to be complete), the resulting virions were harvested, as described above.
# In order to determine if the virions produced in the presence of drug are viable, varying dilutions of these viral preparations were used to inoculate a second set of CEF cultures. Concentrations of the viral dilutions were as follows: 1.00E-10, 1.00E-09, 1.00E-08, 1.00E-07, 1.00E-06 and 1.00E-05. After 72 hours of incubation, cells were treated by a freeze-thaw method to harvest viral particles, and were assayed by ELISA as described in Example 2.
# IBDV Variant A = assay type: cell-based, infectious bursal disease virus; conditions: 0.1 mM drug
# [3] = system: Delaware Variant A strain of IBDV; test: In vitro IBDV replication assay in chick embryo fibroblasts (viral antigen capture ELISA); conditions: compounds maintained in the culture medium throughout
# cells = test: MTT assay for cell viability (cell toxicity); assay type: cell-based; conditions: highest concentration tested 1 mM
# Description: BABIM, SW066, and DAP092 were assessed for cell toxicity using the MTT assay for cell viability described in T. Mossman, J. Immunol. Methods 65, 55-63 (1983). […] 10 μl of MTT reagent was added to each wall and incubated for four hours at 38° C. Acid-isopropanol was added to stop the reaction and plates were read within one hour at 570 nm and 630 nm. The 630 nm reading was subtracted from the 570 nm reading. No toxicity was reported for BABIM.
# IBDV [4] = assay type: cell-based, infectious bursal disease virus
# IBDV [5] = test: Trypsin competition experiment; assay type: cell-based, infectious bursal disease virus; conditions: trypsin 1 mg/ml added to the cells in culture
# Description: It is known that the addition of trypsin can enhance the attachment and penetration of respiratory syncytial virus and rotavirus. A trypsin competition experiment was performed in order to confirm that the activity of the inventive compounds of the present invention is not the result of protease-mediated virus attachment or penetration, as follows: trypsin (1 mg/ml) was added to the cells in culture described above in Example 6.
# APHIS IBDV strain [6] = test: Evaluation of drug effect to prevent or inhibit IBD, oral SW066 (Example 11); assay type: in vivo, chicks
# Description: Chicks were placed in four groups of nine birds each. The four groups were: (1) no virus control (placebo), (2) no virus control (treated with SW066), (3) APHIS IBDV strain at 130 EID (placebo), and (4) APHIS IBDV strain at 130 EID (treated with SW066). The birds were challenged at two weeks of age with 10 μL of the APHIS strain divided between the eye and nares. The drug was administered orally, one mL at a concentration of five mg/mL. […] Daily drug treatment began the same day and 30 minutes prior to challenge. After seven days, survivors were sacrificed and necropsied.
# The virus is believed to cause necrosis in the bursa and to reach a plateau of virus level at three days post-challenge. As the inflammation begins to subside, the organ decreases in size and is severely atrophied at seven to ten days post-challenge. The bursa weight is accordingly a measure of bursal disease severity and was used in this experiment to detect differences between treatment groups.
smiles,measurement,setting,value
COc1cc(C2=NCCN2)ccc1-c1ccnc(-c2ccc(C3=NCCN3)cc2)n1 [DB203],protection against IBDV (rank order),APHIS strain IBDV,DB197>DB203>DB528>DAP092>SW066
same,appearance of bursas upon necropsy,APHIS isolate of IBDV,appeared identical to those from the uninfected control group
same,"Lymphocyte Population Per Gram of Bursal tissue, Percentage Uninfected Control",APHIS isolate of IBDV,51.3 Percentage Uninfected Control
same,lymphocyte populations,APHIS isolate of IBDV,maintenance of relatively normal lymphocyte populations
N=C(N)c1ccc2oc3ccc(C(=N)N)cc3c2c1 [SW066],"bursa weight of survivors, difference between groups","APHIS IBDV strain [1]; SW066 intravenous or prodrug oral, seven days",No statistical significant difference
same,mortality,"APHIS IBDV strain [1]; SW066 intravenous, APHIS IBDV 130 EID, ten birds, placebo 40%",10%
same,long term drug effect in the second set of cultures,IBDV [2]; 10 μM of drug,long term drug effect was also observed for some virus dilutions
same,duration of the virucidal effect,"IBDV [2]; drug for 24 hours then washed away, virions harvested at 72 hours",not transient
same,virus propagation in the second set of cultures,"IBDV [2]; first set of cultures treated at 100 μM, with the exception of the 10^-5 dilution of virus",did not propagate virus
same,lowest concentration of drug that demonstrated anti-viral activity,IBDV [2]; with the 10^-10 dilution of virus,1 µM
same,effectiveness in decreasing virion formation (comparison of the three compounds),IBDV Variant A,most effective
same,effect in reducing IBDV production,IBDV Variant A; even at the high concentrations of virus,significant effect in reducing IBDV production
same,"cytopathic effect (CPE), inverted microscope",IBDV Variant A; highest concentration of virus,Very little CPE
same,protection against IBDV (rank order),APHIS strain IBDV,DB197>DB203>DB528>DAP092>SW066
same,inhibition of IBDV replication (virion formation),[3],most significant decrease of virion formation
same,cell toxicity (MTT assay),cells,some toxicity may be associated
same,virus production when drug is added after infection,IBDV [4]; added after 12 hours,very little potential effect on virus production
same,virus replication when drug is added after infection,IBDV [4]; added prior to the 12 hour incubation time point,potentially substantial inhibition of virus replication
same,virus production when drug is removed by washing,IBDV [4]; drug remains in the culture past the one hour time point,significant decrease in virus production
same,virion formation when drug is removed by washing,IBDV [4]; removed prior to one hour,little or no affect on virion formation
same,effect of the presence of trypsin on the drug's activity,IBDV [5],not found to inhibit the drug's activity
same,bursa weights versus placebo group,"APHIS IBDV strain [6]; 130 EID APHIS IBDV, oral one mL of five mg/mL daily, seven days, p=0.05",higher in the drug treatment group compared to the placebo group
same,"post-challenge titers, infected drug versus placebo group","APHIS IBDV strain [6]; 130 EID APHIS IBDV, oral, seven days",not significantly different
same,deaths in the challenge group,"APHIS IBDV strain [6]; groups of nine birds, same number died with placebo",Two birds died
same,bursa histology score,"APHIS IBDV strain [6]; infected birds, placebo group all scored four, remaining drug birds scored four",two birds in the drug group (n=7) were scored as three
same,protection from IBDV induced B-cell depletion,"APHIS IBDV strain [6]; oral, 130 EID",some protection
same,"Lymphocyte Population Per Gram of Bursal tissue, Percentage Uninfected Control",APHIS isolate of IBDV,4.3 Percentage Uninfected Control
Cc1cnc(-c2ccc(C3=NCCN3)cc2)nc1-c1ccc(C2=NCCN2)cc1 [DB197],protection against IBDV (rank order),APHIS strain IBDV,the most protection
same,lymph per bursa cell number versus uninfected controls,"APHIS strain IBDV; t-test, p-value=0.01",significantly different from uninfected controls
same,lymph per bursa cell number (rank among groups),APHIS strain IBDV; three days post-challenge,the highest
same,appearance of bursas upon necropsy,APHIS isolate of IBDV,appeared identical to those from the uninfected control group
same,"Lymphocyte Population Per Gram of Bursal tissue, Percentage Uninfected Control",APHIS isolate of IBDV,60.5 Percentage Uninfected Control
same,lymphocyte populations,APHIS isolate of IBDV,maintenance of relatively normal lymphocyte populations
N=C(N)c1ccc2nc(Cc3nc4ccc(C(=N)N)cc4[nH]3)[nH]c2c1 [BABIM],inhibition of IBDV replication (virion formation),[3],most significant decrease of virion formation
same,cell toxicity (MTT assay),cells,No toxicity
